Results taken from patent publication US8536202B2, “Triazole-substituted anthranilamides as pesticides” (Bayer Cropscience AG, priority 2010, dated 2013).
Where two headings read alike, the source gives them in different places.

Legend:
[1] = log P determination by HPLC on reversed-phase columns (EEC Directive 79/831 Annex V.A8); assay type: physicochemical; conditions: pH 2.7
Method in brief: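 log P from reversed-phase LC-MS retention at pH 2.7, 0.1% formic acid water/acetonitrile gradient 10–95% acetonitrile. Calibrated against C3–C16 unbranched alkan-2-ones, interpolating linearly between adjacent alkanones.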

[2] = system: larvae of the mustard beetle (Phaedon cochleariae); assay: Phaedon test (PHAECO spray treatment); assay type: in vivo; conditions: 168 h, read-out: activity in %
Method in brief: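 Compound dissolved in acetone/dimethylformamide with alkylaryl polyglycol ether emulsifier, then diluted with emulsifier-containing water to test concentration for spray treatment of Phaedon cochleariae larvae. Activity scored after 7 days as % larvae killed (100% = all dead, 0% = none).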

[3] = system: caterpillars of the armyworm (Spodoptera frugiperda); assay: Spodoptera frugiperda test (SPODFR spray treatment); assay type: in vivo; conditions: 168 h; for pest or weed control at 100 g/ha: read-out: activity in %
Method in brief: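 Maize leaf discs sprayed with compound diluted in emulsifier-containing water (acetone/DMF solvent, alkylaryl polyglycol ether emulsifier), dried, then infested with armyworm caterpillars. Kill scored after 7 days as % mortality, 100% = all caterpillars dead, 0% = none.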

[4] = reversed-phase C18 HPLC column, HPLC on reversed-phase columns (C 18), EEC Directive 79/831 Annex V.A8, read-out: logP

| SMILES | chromatographic logP [1] | pest or weed control at 100 g/ha ([2]; 100 g/ha, after 7 days) | pest or weed control at 100 g/ha ([3]; 100 g/ha, after 7 days) | chromatographic logP [1, 4] | pest or weed control at 20 g/ha ([3]; after 7 days) | chromatographic logP ([1]; HPLC on reversed-phase columns (C 18), EEC Directive 79/831 Annex V.A8, read-out: logP) | pest or weed control at 100 g/ha [2] | pest or weed control at 100 g/ha [3] |
| --- | --- | --- | --- | --- | --- | --- | --- | --- |
| CNC(=O)c1cc(C#N)cc(C)c1NC(=O)c1cc(Cn2nnc3c(Cl)cc(C(F)(F)F)cc32)nn1-c1ncccc1Cl [Example 98] | 3.24 | 100% | 100% |  |  |  |  |  |
| O=C(NC1CC1)c1cc(Cl)cc(Cl)c1NC(=O)c1cc(Cn2ncc(C(F)(F)F)n2)nn1-c1ncccc1Cl [Example 148] | 3.18 | 100% | 100% |  |  |  |  |  |
| Cc1cc(I)cc(C(=O)NC2CC2)c1NC(=O)c1cc(Cn2cc(C(F)(C(F)(F)F)C(F)(F)F)nn2)nn1-c1ncccc1Cl [Example 240] | 3.83 | 100% | 100% |  |  |  |  |  |
| CC(NC(=O)c1cc(Cl)cc(Cl)c1NC(=O)c1cc(Cn2ncc(C(F)(C(F)(F)F)C(F)(F)F)n2)nn1-c1ncccc1Cl)C1CC1 (stereo not drawn) [Example 274] |  | 100% |  | 4.49 | 100% |  |  |  |
| CNC(=O)c1cc(Cl)cc(C)c1NC(=O)c1cc(Cn2ncc(C(F)(F)F)n2)nn1-c1ccccc1Cl [Example 287] |  | 100% | 100% | 3.45 |  |  |  |  |
| Cc1cc(Cl)cc(C(=O)NC(C)(C)C)c1NC(=O)c1cc(Cn2cc(-c3ccc(F)cc3)nn2)nn1-c1ncccc1Cl [Example 45] | 3.63 | 100% | 100% |  |  |  |  |  |
| Cc1cc(C#N)cc(C(=O)NCC2CC2)c1NC(=O)c1cc(Cn2nc(C(F)(F)F)c(C(F)(F)F)n2)nn1-c1ncccc1Cl [Example 395] | 3.89 | 100% | 100% |  |  |  |  |  |
| Cc1cc(Cl)cc(C(=O)NC(C)(C)C)c1NC(=O)c1cc(Cn2ncc(C(F)(F)F)n2)nn1-c1ncccc1Cl [Example 140] | 3.85 | 100% | 100% |  |  |  |  |  |
| Cc1cc(C#N)cc(C(=O)NC2CC2)c1NC(=O)c1cc(Cn2cc(C(F)(F)F)nn2)nn1-c1ccccc1Cl [Example 296] |  | 100% | 100% | 2.93 |  |  |  |  |
| Cc1cc(I)cc(C(=O)NC2CC2)c1NC(=O)c1cc(Cn2ncc(C(F)(F)C(F)(F)F)n2)nn1-c1ncccc1Cl [Example 347] | 3.86 | 100% | 100% |  |  |  |  |  |
| CC(C)(C)NC(=O)c1cc(Cl)cc(Cl)c1NC(=O)c1cc(Cn2ncc(C(F)(C(F)(F)F)C(F)(F)F)n2)nn1-c1ncccc1Cl [Example 276] |  | 100% | 100% | 4.53 |  |  |  |  |
| Cc1cc(C#N)cc(C(=O)NC(C)C)c1NC(=O)c1cc(Cn2ncc(C(F)(C(F)(F)F)C(F)(F)F)n2)nn1-c1ncccc1Cl [Example 251] |  | 100% | 100% | 3.89 |  |  |  |  |
| CCNC(=O)c1cc(I)cc(C)c1NC(=O)c1cc(Cn2ncc(C(F)(F)C(F)(F)F)n2)nn1-c1ncccc1Cl [Example 355] | 3.89 | 100% | 100% |  |  |  |  |  |
| O=C(NCC1CC1)c1cc(Cl)cc(Cl)c1NC(=O)c1cc(Cn2ncc(C(F)(F)F)n2)nn1-c1ncccc1Cl [Example 152] | 3.48 | 100% | 100% |  |  |  |  |  |
| CCNC(=O)c1cc(Cl)cc(Cl)c1NC(=O)c1cc(Cn2ncc(C(F)(F)F)n2)nn1-c1ncccc1Cl [Example 149] | 3.2 | 100% | 100% |  |  |  |  |  |
| Cc1cc(I)cc(C(=O)NC2CC2)c1NC(=O)c1cc(Cn2ncc(C(F)(C(F)(F)F)C(F)(F)F)n2)nn1-c1ncccc1Cl [Example 272] | 4.26 | 100% |  |  | 100% |  |  |  |
| Cc1cc(Cl)cc(C(=O)NC(C)C2CC2)c1NC(=O)c1cc(Cn2ccnn2)nn1-c1ncccc1Cl (stereo not drawn) [Example 117] | 2.41 | 100% | 100% |  |  |  |  |  |

| SMILES | chromatographic logP [1] | pest or weed control at 100 g/ha ([2]; 100 g/ha, after 7 days) | pest or weed control at 100 g/ha ([3]; 100 g/ha, after 7 days) | chromatographic logP [1, 4] | pest or weed control at 20 g/ha ([3]; after 7 days) | chromatographic logP ([1]; HPLC on reversed-phase columns (C 18), EEC Directive 79/831 Annex V.A8, read-out: logP) | pest or weed control at 100 g/ha [2] | pest or weed control at 100 g/ha [3] |
| --- | --- | --- | --- | --- | --- | --- | --- | --- |
| Cc1cc(Cl)cc(C(=O)NC(C)C2CC2)c1NC(=O)c1cc(Cn2nccn2)nn1-c1ncccc1Cl (stereo not drawn) [Example 122] | 2.81 | 100% | 100% |  |  |  |  |  |
| Cc1cc(C#N)cc(C(=O)NC2(C3CC3)CC2)c1NC(=O)c1cc(Cn2ncc(C(F)(C(F)(F)F)C(F)(F)F)n2)nn1-c1ncccc1Cl [Example 283] |  | 100% | 100% | 4.12 |  |  |  |  |
| Cc1cc(I)cc(C(=O)NC(C)C2CC2)c1NC(=O)c1cc(Cn2nc(C(F)(F)F)c(C(F)(F)F)n2)nn1-c1ncccc1Cl (stereo not drawn) [Example 391] | 4.76 | 100% | 100% |  |  |  |  |  |
| Cc1cc(C#N)cc(C(=O)NC(C)(C)C)c1NC(=O)c1cc(Cn2ncc(C(F)(C(F)(F)F)C(F)(F)F)n2)nn1-c1ncccc1Cl [Example 252] |  | 100% | 100% | 4.21 |  |  |  |  |
| Cc1cc(C#N)cc(C(=O)NC(C)C2CC2)c1NC(=O)c1cc(Cn2ncc(C(F)(C(F)(F)F)C(F)(F)F)n2)nn1-c1ncccc1Cl (stereo not drawn) [Example 250] |  | 100% | 100% | 4.2 |  |  |  |  |
| CNC(=O)c1cc(C#N)cc(C)c1NC(=O)c1cc(Cn2nnc3cc(Br)c(C(F)(F)F)cc32)nn1-c1ncccc1Cl [Example 97] | 3.27 | 100% | 100% |  |  |  |  |  |
| CNC(=O)c1cc(Cl)cc(C)c1NC(=O)c1cc(Cn2ncc(-c3ccc(F)cc3)n2)nn1-c1ncccc1Cl [Example 24] | 3.23 | 100% | 100% |  |  |  |  |  |
| CC(C)NC(=O)c1cc(Cl)cc(Cl)c1NC(=O)c1cc(Cn2ncc(C(F)(C(F)(F)F)C(F)(F)F)n2)nn1-c1ncccc1Cl [Example 275] | 4.17 | 100% | 100% |  |  |  |  |  |
| Cc1cc(I)cc(C(=O)NC(C)C)c1NC(=O)c1cc(Cn2ncc(C(F)(F)C(F)(F)F)n2)nn1-c1ncccc1Cl [Example 346] | 4.15 | 100% | 100% |  |  |  |  |  |
| CNC(=O)c1cc(Cl)cc(C)c1NC(=O)c1cc(Cn2ncc(-c3cccc(Cl)c3)n2)nn1-c1ncccc1Cl [Example 28] | 3.63 | 100% | 100% |  |  |  |  |  |
| CNC(=O)c1cc(C#N)cc(C)c1NC(=O)c1cc(Cn2cc(-c3cccc(Cl)c3)nn2)nn1-c1ncccc1Cl [Example 36] | 2.86 | 100% | 100% |  |  |  |  |  |
| Cc1cc(Cl)cc(C(=O)NCC2CC2)c1NC(=O)c1cc(Cn2ncc(C(F)(F)C(F)(F)C(F)(F)F)n2)nn1-c1ncccc1Cl [Example 366] |  |  |  |  |  | 4.34 | 100% | 100% |
| Cc1cc(C#N)cc(C(=O)NC(C)(C)C)c1NC(=O)c1cc(Cn2cc(-c3ccc(Cl)cc3Cl)nn2)nn1-c1ncccc1Cl [Example 55] | 4.06 | 100% | 100% |  |  |  |  |  |
| Cc1cc(I)cc(C(=O)NC(C)C2CC2)c1NC(=O)c1cc(Cn2cc(C(F)(F)F)nn2)nn1-c1ncccc1Cl (stereo not drawn) [Example 207] | 3.69 | 100% | 100% |  |  |  |  |  |
| Cc1cc(Cl)cc(C(=O)NC(C)C)c1NC(=O)c1cc(Cn2cc(C(F)(F)F)nn2)nn1-c1ncccc1Cl [Example 190] | 3.06 | 100% | 100% |  |  |  |  |  |
| CNC(=O)c1cc(C#N)cc(C)c1NC(=O)c1cc(Cn2ncc(-c3ccc(Cl)cc3)n2)nn1-c1ncccc1Cl [Example 41] | 3.34 | 100% | 100% |  |  |  |  |  |
